Measured values reported in patent publication US4874856A, “3-(substituted)propenyl-7-(aminothiazolylacetamido) ceph-3-em-4-carboxylic acids and esters thereof” (Bristol-Myers Company, priority 1987, dated 1989).
≈ marks a conversion by molar mass, not a printed value. Like-named read-outs stand apart in the source and are kept apart here.

Assays:
Assay in all cases: In vitro MIC, Mueller-Hinton agar, inoculum 10^6 cells/ml
Format in all cases: cell-based
Providencia rettgeri = system: Providencia rettgeri
From the text: (§1) Table 6 is a comparison of the in vitro antibacterial activities of Compound 29 and the vinyl homolog thereof FK-482 against clinically important pathogens. Thirty-seven organisms were more than 4-fold more susceptible to Compound 29 than to FK-482. FK-482 has the following formula and is described by Takaya, et al. in U.S. Pat. No. 4,559,334 patented Dec. 17, 1985 (filed Oct. 20, 1983). [drawing 14]
(§2) *; Geometric mean of MIC (μg/ml)
(§3) Mueller-Hinton agar Inoculum size; 10^6 cells/ml

Serratia marcescens = system: Serratia marcescens
From the text: as §1, §2, §3

Proteus mirabilis = system: Proteus mirabilis
From the text: as §1, §2, §3

Proteus vulgaris = system: Proteus vulgaris
From the text: as §1, §2, §3

Enterobacter cloacae = system: Enterobacter cloacae
From the text: as §1, §2, §3

Serratia species = system: Serratia species
From the text: as §1, §2, §3

Morganella morganii = system: Morganella morganii
From the text: as §1, §2, §3

Enterobacter aerogenes = conditions: Klebsiella aerogenes
From the text: as §1, §2, §3

Citrobacter freundii = system: Citrobacter freundii
From the text: as §1, §2, §3

MIC (Providencia rettgeri; (GM) of the Providencia rettgeri strains, read-out: Geometric mean of MIC): 0.07 µg/mL (≈ 0.177 µM)
MIC (Providencia rettgeri; IFO3850, strain IFO 3850 MS-1, read-out: MIC): 0.013 µg/mL (≈ 0.0329 µM)
MIC (Providencia rettgeri; strain A 9637, read-out: MIC): < 0.0063 µg/mL
MIC (Providencia rettgeri; strain A15167 (first line), read-out: MIC): 0.013 µg/mL (≈ 0.0329 µM)
MIC (Providencia rettgeri; strain A15167 (second line), read-out: MIC): 0.1 µg/mL (≈ 0.253 µM)
MIC (Providencia rettgeri; strain A20645, read-out: MIC): 6.3 µg/mL (≈ 15.9 µM)
MIC (Providencia rettgeri; strain A20915, read-out: MIC): 3.1 µg/mL (≈ 7.84 µM)
MIC (Providencia rettgeri; strain A20920, read-out: MIC): 0.013 µg/mL (≈ 0.0329 µM)
MIC (Providencia rettgeri; strain A20921, read-out: MIC): 0.025 µg/mL (≈ 0.0632 µM)
MIC (Providencia rettgeri; strain A21205, read-out: MIC): 0.1 µg/mL (≈ 0.253 µM)
MIC (Providencia rettgeri; strain A21270, read-out: MIC): 0.1 µg/mL (≈ 0.253 µM)
MIC (Serratia marcescens; (GM) of the Serratia marcescens strains, read-out: Geometric mean of MIC): 31 µg/mL (≈ 78.4 µM)
MIC (Serratia marcescens; strain A20019, read-out: MIC): 12.5 µg/mL (≈ 31.6 µM)
MIC (Serratia marcescens; strain A20222, read-out: MIC): 25 µg/mL (≈ 63.2 µM)
MIC (Serratia marcescens; strain A20333, read-out: MIC): > 50 µg/mL
MIC (Serratia marcescens; strain A20334, read-out: MIC): > 50 µg/mL
MIC (Serratia marcescens; strain A20335, read-out: MIC): 12.5 µg/mL (≈ 31.6 µM)
MIC (Serratia marcescens; strain A20336, read-out: MIC): 12.5 µg/mL (≈ 31.6 µM)
MIC (Serratia marcescens; strain A20442, read-out: MIC): 3.1 µg/mL (≈ 7.84 µM)
MIC (Serratia marcescens; strain A20459, read-out: MIC): > 50 µg/mL
MIC (Serratia marcescens; strain A20460, read-out: MIC): 50 µg/mL (≈ 126 µM)
MIC (Serratia marcescens; strain A20461, read-out: MIC): > 50 µg/mL
MIC (Proteus mirabilis; (GM) of the Proteus mirabilis strains, read-out: Geometric mean of MIC): 0.14 µg/mL (≈ 0.354 µM)
MIC (Proteus mirabilis; IFO3849, strain IFO 3849 MS-1, read-out: MIC): 0.2 µg/mL (≈ 0.506 µM)
MIC (Proteus mirabilis; strain A 9554, read-out: MIC): 0.2 µg/mL (≈ 0.506 µM)
MIC (Proteus mirabilis; strain A 9702, read-out: MIC): 0.1 µg/mL (≈ 0.253 µM)
MIC (Proteus mirabilis; strain A 9716, read-out: MIC): 0.2 µg/mL (≈ 0.506 µM)
MIC (Proteus mirabilis; strain A20119, read-out: MIC): 0.1 µg/mL (≈ 0.253 µM)
MIC (Proteus mirabilis; strain A20342, read-out: MIC): 0.2 µg/mL (≈ 0.506 µM)
MIC (Proteus mirabilis; strain A20454, read-out: MIC): 0.1 µg/mL (≈ 0.253 µM)
MIC (Proteus mirabilis; strain A21222, read-out: MIC): 0.1 µg/mL (≈ 0.253 µM)
MIC (Proteus vulgaris; (GM) of the Proteus vulgaris strains, read-out: Geometric mean of MIC): 6.3 µg/mL (≈ 15.9 µM)
MIC (Proteus vulgaris; strain A 9436, read-out: MIC): 0.4 µg/mL (≈ 1.01 µM)
MIC (Proteus vulgaris; strain A 9526, read-out: MIC): 25 µg/mL (≈ 63.2 µM)
MIC (Proteus vulgaris; strain A 9699, read-out: MIC): 25 µg/mL (≈ 63.2 µM)
MIC (Proteus vulgaris; strain AKH-26, read-out: MIC): > 50 µg/mL
MIC (Proteus vulgaris; strain HX-19 MS-1, read-out: MIC): 0.8 µg/mL (≈ 2.02 µM)
MIC (Proteus vulgaris; strain OX-19 MS-1, read-out: MIC): 3.1 µg/mL (≈ 7.84 µM)
MIC (Enterobacter cloacae; (GM) of the Enterobacter cloacae strains, read-out: Geometric mean of MIC): 21 µg/mL (≈ 53.1 µM)
MIC (Enterobacter cloacae; strain A 9655, read-out: MIC): > 50 µg/mL
MIC (Enterobacter cloacae; strain A 9659, read-out: MIC): > 50 µg/mL
MIC (Enterobacter cloacae; strain A20344, read-out: MIC): > 50 µg/mL
MIC (Enterobacter cloacae; strain A20364, read-out: MIC): 6.3 µg/mL (≈ 15.9 µM)
MIC (Enterobacter cloacae; strain A20464, read-out: MIC): 3.1 µg/mL (≈ 7.84 µM)
MIC (Enterobacter cloacae; strain A20650, read-out: MIC): 0.8 µg/mL (≈ 2.02 µM)
MIC (Enterobacter cloacae; strain A22551, read-out: MIC): > 50 µg/mL
MIC (Serratia species; (GM) of the Serratia species strains, read-out: Geometric mean of MIC): > 50 µg/mL
MIC (Serratia species; strain 6-330, read-out: MIC): 25 µg/mL (≈ 63.2 µM)
MIC (Serratia species; strain 6-427, read-out: MIC): 25 µg/mL (≈ 63.2 µM)
MIC (Serratia species; strain 6-920, read-out: MIC): > 50 µg/mL
MIC (Serratia species; strain 7-255, read-out: MIC): > 50 µg/mL
MIC (Serratia species; strain 7-454, read-out: MIC): > 50 µg/mL
MIC (Serratia species; strain 7-2322, read-out: MIC): > 50 µg/mL
MIC (Serratia species; strain 8-185, read-out: MIC): > 50 µg/mL
MIC (Serratia species; strain 8-513, read-out: MIC): > 50 µg/mL
MIC (Serratia species; strain 8-785, read-out: MIC): > 50 µg/mL
MIC (Serratia species; strain 8-1537, read-out: MIC): > 50 µg/mL
MIC (Serratia species; strain 9-50, read-out: MIC): > 50 µg/mL
MIC (Serratia species; strain 9-690, read-out: MIC): > 50 µg/mL
MIC (Morganella morganii; (GM) of the Morganella morganii strains, read-out: Geometric mean of MIC): 25 µg/mL (≈ 63.2 µM)
MIC (Morganella morganii; IFO3843, strain IFO 3843 MS-1, read-out: MIC): 12.5 µg/mL (≈ 31.6 µM)
MIC (Morganella morganii; strain A 9636, read-out: MIC): > 50 µg/mL
MIC (Morganella morganii; strain A20455, read-out: MIC): 12.5 µg/mL (≈ 31.6 µM)
MIC (Enterobacter aerogenes; (GM) of the Enterobacter aerogenes strains, read-out: Geometric mean of MIC): 9.8 µg/mL (≈ 24.8 µM)
MIC (Enterobacter aerogenes; strain A20940, read-out: MIC): > 50 µg/mL
MIC (Enterobacter aerogenes; strain A20941, read-out: MIC): 6.3 µg/mL (≈ 15.9 µM)
MIC (Enterobacter aerogenes; strain A20943, read-out: MIC): 6.3 µg/mL (≈ 15.9 µM)
MIC (Enterobacter aerogenes; strain A20958, read-out: MIC): 6.3 µg/mL (≈ 15.9 µM)
MIC (Enterobacter aerogenes; strain A20961, read-out: MIC): 12.5 µg/mL (≈ 31.6 µM)
MIC (Enterobacter aerogenes; strain A20966, read-out: MIC): 6.3 µg/mL (≈ 15.9 µM)
MIC (Enterobacter aerogenes; strain A20971, read-out: MIC): 6.3 µg/mL (≈ 15.9 µM)
MIC (Enterobacter aerogenes; strain A20985, read-out: MIC): > 50 µg/mL
MIC (Enterobacter aerogenes; strain A20994, read-out: MIC): 25 µg/mL (≈ 63.2 µM)
MIC (Enterobacter aerogenes; strain A20996, read-out: MIC): 3.1 µg/mL (≈ 7.84 µM)
MIC (Enterobacter aerogenes; strain A21013, read-out: MIC): 6.3 µg/mL (≈ 15.9 µM)
MIC (Enterobacter aerogenes; strain A21036, read-out: MIC): 50 µg/mL (≈ 126 µM)
MIC (Enterobacter aerogenes; strain A21037, read-out: MIC): 3.1 µg/mL (≈ 7.84 µM)
MIC (Enterobacter aerogenes; strain A21038, read-out: MIC): 1.6 µg/mL (≈ 4.05 µM)
MIC (Enterobacter aerogenes; strain A21039, read-out: MIC): 6.3 µg/mL (≈ 15.9 µM)
MIC (Enterobacter aerogenes; strain A21043, read-out: MIC): 25 µg/mL (≈ 63.2 µM)
MIC (Enterobacter aerogenes; strain A21044, read-out: MIC): 25 µg/mL (≈ 63.2 µM)
MIC (Enterobacter aerogenes; strain A21118, read-out: MIC): > 50 µg/mL
MIC (Enterobacter aerogenes; strain A21120, read-out: MIC): 6.3 µg/mL (≈ 15.9 µM)
MIC (Enterobacter aerogenes; strain A21130-1, read-out: MIC): 6.3 µg/mL (≈ 15.9 µM)
MIC (Enterobacter aerogenes; strain A21131, read-out: MIC): 6.3 µg/mL (≈ 15.9 µM)
MIC (Enterobacter aerogenes; strain A21152, read-out: MIC): 1.6 µg/mL (≈ 4.05 µM)
MIC (Enterobacter aerogenes; strain A21155, read-out: MIC): 6.3 µg/mL (≈ 15.9 µM)
MIC (Enterobacter aerogenes; strain A21158, read-out: MIC): 6.3 µg/mL (≈ 15.9 µM)
MIC (Enterobacter aerogenes; strain A21503, read-out: MIC): 6.3 µg/mL (≈ 15.9 µM)
MIC (Citrobacter freundii; (GM) of the Citrobacter freundii strains, read-out: Geometric mean of MIC): 4.1 µg/mL (≈ 10.4 µM)
MIC (Citrobacter freundii; strain A21312, read-out: MIC): > 50 µg/mL
MIC (Citrobacter freundii; strain A22140, read-out: MIC): 3.1 µg/mL (≈ 7.84 µM)
MIC (Citrobacter freundii; strain A22141, read-out: MIC): 3.1 µg/mL (≈ 7.84 µM)
MIC (Citrobacter freundii; strain A22142, read-out: MIC): 0.8 µg/mL (≈ 2.02 µM)
MIC (Citrobacter freundii; strain A22160, read-out: MIC): 6.3 µg/mL (≈ 15.9 µM)
MIC (Citrobacter freundii; strain A22161, read-out: MIC): 0.8 µg/mL (≈ 2.02 µM)
MIC (Citrobacter freundii; strain A22166, read-out: MIC): 3.1 µg/mL (≈ 7.84 µM)
MIC (Citrobacter freundii; strain A22175, read-out: MIC): 0.8 µg/mL (≈ 2.02 µM)
MIC (Citrobacter freundii; strain A22176, read-out: MIC): 3.1 µg/mL (≈ 7.84 µM)
MIC (Citrobacter freundii; strain A22177, read-out: MIC): 50 µg/mL (≈ 126 µM)
Structure (SMILES): C=CC1=C(C(=O)O)N2C(=O)[C@@H](NC(=O)/C(=N\O)c3csc(N)n3)[C@H]2SC1 [FK-482, reference compound]
